For 87 compounds, melting point results are on record in a melting point compilation (Tetko et al.; mined from patent text by program, amines drawn as free bases though some values may be those of a salt).

For `Cc1cc(COc2cccc3c2CN(C2CCC(=O)NC2=O)C3=O)nn1C` (configuration not stated), the melting point lay within 214 to 216 °C.

In turn, `CCCc1nc2c(N)nc3cc(F)ccc3c2s1` had a melting point of 192 to 194 °C.

Compound `O=C(O)CN1CCN(Cc2ccccc2)C1=O` returned a melting point of 132 to 133 °C.

The compound `CSC(C)(C(=O)O)c1ccc2oc(Cc3nc(-c4ccccc4)oc3C)cc2c1` (configuration not stated) yielded a melting point of 178 to 179 °C.

Regarding `CCCCOC(=O)Oc1cc(-n2c(OCC)nc(C(F)(F)F)cc2=O)c(F)cc1Cl`, the melting point fell in the range of 100 to 102 °C.

For the compound `COCOc1c(-c2ccc(C(=O)O)cc2)cccc1-c1ccc2c(c1)C(C)(C)CCC2(C)C`, the melting point came out at 74 °C.

Consider `CNS(=O)(=O)CCCn1cnc2c(N)nc3ccccc3c21`, for which the melting point fell in the range of 155 to 157 °C.

Consider `CC1(C)COP(=O)(O)OC1c1cccc2ccccc12` (configuration not stated), for which the melting point fell in the range of 216 to 217 °C.

`O=c1cc(N2CCNCC2)oc2c1ccc1ccccc12` gave a melting point of 208 to 209 °C.

Compound `CCc1cc(Cc2cc(CC)c(N)c(C)c2Cl)c(Cl)c(C)c1N` gave a melting point of 115 to 117 °C.

`CC(C)c1cc2c(cc1C(CC(=O)O)c1ccccc1)OCO2` (configuration not stated): the melting point came to 114 °C.

As to `FC(F)(F)c1cc(N2CCN(Cc3ccc4ccccc4n3)CC2)ccc1Cl`, the melting point was in the range of 61 to 64 °C.

In turn, `CCCc1nc2c(N)nc3ccccc3c2n1CCOCCCSC` yielded a melting point of 99 to 101 °C.

For `O=C(O)COc1cccc2c1CC(S(=O)(=O)Cc1ccccc1)c1sc(-c3cccc(F)c3)nc1-2` (configuration not stated), the melting point lay in the range of 215 to 217 °C.

Compound `CC(C)(C)c1ccc(OCC(=O)N2Cc3ccc(C(=O)NCc4cccnc4)n3Cc3ccccc32)cc1` gave a melting point of 85 °C.

The compound `O=C(O)C(Sc1ccccc1)c1ccc(Oc2ccc(Cl)cc2)cc1` (configuration not stated) showed a melting point of 156 to 158 °C.

In turn, `CN1Cc2c(C(=O)OC(C)(C)C)ncn2-c2cccc(C#N)c2C1=O` registered a melting point of 213 to 215 °C.

`O=C(O)c1cc(=O)[nH]c2ccc(I)cc12` yielded a melting point of 361 to 363 °C.

`OC(Cn1cncn1)(c1ccc(F)cc1)C(F)(F)C(F)(F)C(F)(F)F` (configuration not stated) yielded a melting point of 126 to 127 °C.

In turn, `CCOc1cc(Cc2cnc(N)nc2N)cc2c1OC(C)(C)C=C2C` returned a melting point of 216 to 218 °C.

Turning to `N#Cc1ccc(C=O)c(SCc2ccccc2)c1`, the melting point lay in the range of 106 to 109 °C.

In the case of `COCCN1CCN(CCc2ccc(Nc3ncc4c(n3)-c3ccccc3C(c3cccc(Br)c3)C4)cc2)CC1` (configuration not stated), the melting point lay in the range of 105 to 107 °C.

In the case of `CCCCNC(=O)c1ncc[nH]1`, the melting point lay in the range of 188 to 190 °C.

Regarding `CC1(c2ccc(F)cc2)NOCC1CN(O)C(N)=O` (configuration not stated), the melting point lay within 135 to 137 °C.

`COc1cc(C(=O)NS(=O)(=O)c2ccccc2Cl)ccc1Cc1cn(C)c2ccc(CCNC(=O)N3CCOCC3)cc12` displayed a melting point of 175 to 181 °C.

On to `O=C1Nc2cccnc2N(C(=O)CCl)c2cc(F)ccc21`, for which the melting point is 230 °C.

For the compound `Cc1ccc2c(c1C)OC(C(F)(F)F)C(C(=O)O)=C2` (configuration not stated), the melting point is 245 to 247 °C.

The compound `CCn1ncc2c(NCC3CCCCC3)c3cc(C(=O)OC)ccc3nc21` gave a melting point of 275 to 277 °C.

Consider `COc1cc(Cc2cnc(N)nc2N)cc(-c2ccc(O)cc2)c1OC`, for which the melting point stood at 233 °C.

In turn, `O=C1c2ccccc2-c2ccc(-c3nc(CCl)co3)cc21` gave a melting point of 188 to 189 °C.

The compound `O=C(O)[C@@H](CC(=O)N1CCOCC1)NS(=O)(=O)c1ccc(Oc2ccccc2)cc1` had a melting point of 147 to 149 °C.

`CC(C)C[C@H](NC(=O)OCC1CCCCC1)C(=O)NC(C)(C)C(=O)c1c(-c2ccccc2)c1=O` yielded a melting point of 42 to 49 °C.

`O=C(Nc1nc(C(Cl)(Cl)Cl)ns1)C(F)(F)F`: the melting point turned out to be 116 °C.

Turning to `CN(C)CCCNC(=O)c1ccc(/C=C/c2ccc3c(=O)[nH]ncc3c2)cc1`, the melting point came out at 287 °C.

With `CCCN(CCC)Cc1csc(-c2ncn3c2CN(C)C(=O)c2c(Cl)cccc2-3)n1`, the melting point lay in the range of 121 to 123 °C.

As for `CN(C)c1ccc(NC(=O)N(CC2CCCCC2)C[C@H]2CCCC[C@H]2CN(CC2CCCCC2)C(=O)Nc2ccc(N(C)C)cc2)cc1`, the melting point fell in the range of 102 to 106 °C.

Compound `COc1ccc(CSc2nnc(-c3ccc4nccn4c3)o2)cc1` yielded a melting point of 155 to 156 °C.

The compound `O=c1c2ccccc2ccn2c(SC(F)(F)F)ccc12` showed a melting point of 137 to 138 °C.

The compound `Clc1c2nc3ccccc3c-2[nH]c2ccccc12` returned a melting point of 220 to 222 °C.

Turning to `CCn1cnc2c(Nc3cccc(F)c3)nc(NCCO)nc21`, the melting point turned out to be 184 °C.

`CCCc1cc(=O)n(-c2cc(C(=O)OC(C)C)c(Cl)cc2F)c(=O)[nH]1` showed a melting point of 192 to 193 °C.

Take `CC(C)(C)COc1ccc(NC(=O)c2ccn(-c3ccc(F)cc3)c2)cc1C#N`: the melting point is 167 to 169 °C.

With `Cc1c(O)c(=O)ccn1CCCO`, the melting point fell in the range of 111 to 113 °C.

For `CCOC(=O)/C=C/c1sc(-n2cnc3ccccc32)nc1C(C)C`, the melting point is 229 to 230 °C.

In turn, `CCOC(=O)CC(=O)c1c(F)c(F)c(N2CCC(NC(C)=O)C2)c(F)c1F` (configuration not stated) returned a melting point of 90 to 92 °C.

`Cc1nc(N2CCc3ccccc3CC2)c(C#N)c(=O)n1N(CC(F)(F)F)C(=O)OC(C)(C)C` yielded a melting point of 86 to 88 °C.

With `CCCOc1ccc(-c2ccc3c(c2)C=C(C(=O)OC)CCN3C=O)cc1`, the melting point was in the range of 152 to 153 °C.

Turning to `CCc1ccc(S(=O)(=O)n2c(COC(C)(C)C(=O)O)cc3nc(Cl)ccc32)cc1`, the melting point was 172 °C.

`O=C(NCCc1c[nH]cn1)c1ccccc1NS(=O)(=O)c1cccc(C(F)(F)F)c1`: the melting point is 160 to 163 °C.

`CCCCCCCCCCCCCCCCC[C@@H](C[C@@H]1OC(=O)[C@H]1CC)OC(=O)[C@H](CC(C)C)NC(=O)OCc1ccccc1` showed a melting point of 44 to 47 °C.

`CCSC(=S)SC1NC(=O)C1C(C)OC(C)=O` (mixture of isomers): the melting point lay in the range of 101 to 105 °C.

The compound `CCOC(=O)c1cccc(-n2nc(C(=O)OCC)c3csc(N)c3c2=O)c1` registered a melting point of 159 to 160 °C.

The compound `CCOc1cc(OCCCCc2cc(-c3ccc(C(F)(F)F)cc3)no2)ccc1CCC(=O)O` yielded a melting point of 105 to 106 °C.

`CCOCc1nc2c(c(C)c(C)n3nnnc23)n1CCNS(C)(=O)=O` registered a melting point of 218 to 222 °C.

For the compound `CCOC(=O)C1=C(C)NC(c2cnc(N)s2)=NC1c1ccc(F)cc1Cl` (configuration not stated), the melting point lay in the range of 132 to 135 °C.

Take `COCCNC(=O)CC1CN=C(c2cc3cc(Oc4ccc(S(C)(=O)=O)nc4)cc(OC)c3[nH]2)S1` (configuration not stated): the melting point lay in the range of 175 to 176 °C.

Take `Cc1ccc2c(n1)N(CCCN(C)C)c1ccccc1N(C)C2=O`: the melting point fell in the range of 130 to 131 °C.

Compound `CC(CCC(=O)NO)NC(=O)C(=O)c1cn2c3c(cccc13)CCC2` (configuration not stated) returned a melting point of 135 to 137 °C.

For `CN(C)Cc1ccc(CSCCNc2ncc(Cc3cccnc3)c(=O)[nH]2)cc1`, the melting point lay in the range of 124 to 126 °C.

Compound `CCOC(=O)c1c(-c2ccncc2)[nH]c(-c2ccncc2)c1-c1ccccc1` came in with a melting point of 99 to 100 °C.

In turn, `CC#Cc1ncn2c1CN(C)C(=O)c1ccccc1-2` came in with a melting point of 206 to 207 °C.

`CCOC(=O)c1cn2c(ccc3c(Cl)cccc32)n1` showed a melting point of 193 to 194 °C.

`O=C(O)c1cc(S(=O)Cc2ccccc2)c(Cl)cc1Cl` (configuration not stated): the melting point amounted to 192 °C.

Take `CN1C(C)(C)CC(OC(=O)CCc2cc(-n3nc4ccc(Cl)cc4n3)c(O)c(C(C)(C)C)c2)CC1(C)C`: the melting point was 150 to 158 °C.

The compound `COc1ccc2cc3c(c(-c4ccc(C)cc4)c2c1)CNC3=O` yielded a melting point of 298 to 301 °C.

`COc1cccc(CNC(=O)c2cc3c(=O)n(CCOc4ccc(Cl)cc4)c(=O)n(C)c3s2)c1` showed a melting point of 109 to 112 °C.

`CCN1C(C(=O)Nc2cncc(Cl)n2)=C(O)c2ccccc2S1(=O)=O` yielded a melting point of 233 to 235 °C.

Take `COc1cc2c(cc1F)C(c1ccccc1Cl)=NC1=CNNC1=N2`: the melting point was 242 to 243 °C.

`O=C1C[C@@H]2[C@@H](/C=C/[C@@H](O)COc3cccc(Cl)c3)[C@H](OC(=O)c3ccccc3)C[C@@H]2O1` returned a melting point of 101 to 102 °C.

Turning to `IC12C3C4C5C3C1C5C42` (configuration not stated), the melting point lay in the range of 32 to 33 °C.

Regarding `Cn1c(=O)c2ncn3c2n(c1=O)CC=C3c1cccc(C(F)(F)F)c1`, the melting point was 287 to 290 °C.

`CN(CC1CCCCN1)C(=O)c1cc(OCC(F)(F)F)ccc1OCC(F)(F)F` (configuration not stated) displayed a melting point of 104 to 107 °C.

For the compound `COC(=O)c1c(OC)c([N+](=O)[O-])c(C(=O)OC)c(OC)c1[N+](=O)[O-]`, the melting point fell in the range of 126 to 127 °C.

`COC(=O)N1CCC(c2nn(-c3ccc(F)cc3)c3ccccc23)CC1`: the melting point lay in the range of 95 to 97 °C.

Turning to `NC(=O)c1ccc(F)c2c1CC(NCCCc1c[nH]c3c(Cl)cccc13)CO2` (configuration not stated), the melting point was in the range of 222 to 224 °C.

Take `O=C1c2ccccc2N(N2CCCCCC2)C2=NCCN12`: the melting point was 206 to 208 °C.

As to `COc1ccc(C(CC(C)=O)N2C(=O)c3cccc(N(S(C)(=O)=O)S(C)(=O)=O)c3C2=O)cc1OC` (configuration not stated), the melting point lay within 194 to 196 °C.

As for `N#Cc1c(Br)[nH]c(Br)c1C(F)(F)F`, the melting point fell in the range of 198 to 200 °C.

With `Fc1ccc2[nH]cc(C3=CCN(CC4COc5ccc6[nH]ccc6c5O4)CC3)c2c1` (configuration not stated), the melting point was found to be 112 °C.

For `CCC(CC)n1cc(Cl)nc(N2CCc3cc(OC)cc(C)c32)c1=O`, the melting point fell in the range of 164 to 165 °C.

As to `COc1ccc(C(=O)c2ccc(OCc3nc(-c4ccccc4)oc3C)cc2)c(OCC(=O)O)c1`, the melting point was 146 to 147 °C.

For the compound `CCCCOc1ccc(CCCCCCCCC(=O)O)cc1`, the melting point was in the range of 45 to 48 °C.

For the compound `CCOC(=O)c1cnc2cc(C)sc2c1O`, the melting point fell in the range of 240 to 245 °C.

The compound `CN1C(=S)N(c2cc(Cl)cc(Cl)c2)C(O)C1O` (configuration not stated) gave a melting point of 143 °C.

For `CC(=O)Nc1nc(CCc2ccc(NC(NC(=O)OC(C)(C)C)NC(=O)OC(C)(C)C)cc2)c(Cl)s1`, the melting point lay within 220 to 221 °C.

Regarding `CCCCCCCCCCCCc1ccc(CCC(N)(CO)CCO)cc1` (configuration not stated), the melting point lay within 75 to 77 °C.

`CNC(=O)N(CCN1CCC(Nc2nc3ccccc3n2Cc2ccc(F)cc2)CC1)c1nccs1` returned a melting point of 172 °C.
